“Also recorded” adds a separate entry of the source.
How the values were obtained:
[1] = test system: Cervical Intraepithelial Neoplasia Level II or III; assay: Phase I/II clinical study, aqueous adapalene gel with cervical cap and collagen sponge; assay type: in vivo, human; settings: for CIN Resolved / Improved to CIN I / Overall Response / Overall “cure” / Improved from CIN III to CIN II: Table II
Excerpt: Level I corresponds to mild cervical dysplasia, II to moderate dysplasia, and III to severe dysplasia, and carcinoma in situ.
A clinical study was designed and approved where an aqueous adapalene gel was delivered with a cervical cap and a collagen sponge in patients with advanced cervical dysplasia (CIN II and CIN III). Inclusion criteria for enrollment included a biopsy proving diagnosis of CIN II or CIN III. Forty-nine patients received the drug and completed the study.

[2] = test system: human cervical cancer cell lines Caski and C33A; assay: Proliferation assay on cervical cancer cell lines (Example 32, FIG. 6); assay type: cell-based
Description: Two human cervical cancer cell lines, the Caski and C33A (which contains integrated human papillomavirus sequences) were treated with adapalene at concentrations of 1, 2 and 10 μM for 24, 48 and 96 hours or with tretinoin as a control. Afterward, human cervical cancer cells, which had been treated for […] or 48 hours, were then washed and incubated in a medium lacking adapalene.
After a total incubation time of 96 hours, a proliferation assay was performed to assess the extent of inhibition of proliferation or cell killing. […] The EC50 (concentration of adapalene that provides for 50% inhibition of cell proliferation) for the tested human cervical cancer cell lines was estimated to be approximately 5 μM.

[3] = test system: human cervical cancer cell lines (C33A cells and Caski cells); assay: Proliferation of human cervical cancer cell lines (Example 33, FIG. 7); assay type: cell-based
Description: Another experiment was also conducted to compare the effect of three different retinoid compounds according to the invention, i.e., 6-[3-(1-adamantyl)-4-methoxyphenyl]-2-naphthoic acid, 2-[3-(1-adamantyl)-4-methoxyphenyl]-5-benzimidazole carboxylic acid, and 6-[3-(1-adamantyl)-4,5-methylenedioxyphenyl]-2-naphthoic acid, a control (DMSO), and a control retinoid (all-trans retinoic acid) on the proliferation of several human cervical cancer cell lines (C33A cells and Caski cells).

cancer cells = assay: List of active compounds: types of cancers and precancers active against; assay type: cell-based
Excerpt: As discussed, the adamantyl retinoid derivatives according to the invention which induce apoptosis are useful for treating many different types of cancers.

[4] = test system: cervical cancer cell lines; assay: Apoptosis, cellular DNA fragmentation ELISA (FIG. 8); assay type: cell-based, human; settings: eighteen hours; adapalene 1, 5 and 10 μM, tRA 10 μM, ceramide 0.5 mM
Description: In this experiment cells were labeled with BrdU for six hours. After labeling, cells were treated with vehicle (DM50), or with 10 μM tRA, 0.5 mM ceramide or doses of adapalene of 1, 5 and 10 μM for eighteen hours. Apoptosis was measured using a cellular DNA fragmentation ELISA kit (available from Boehringer). […] Therein, one unit represents the value obtained from cells grown in the presence of vehicle alone.

[5] = test system: various human cancer cell lines; assay: Anti-cancer activity against human cancer cell lines over a concentration range (FIGS. 2-4); assay type: cell-based; settings: retinoid concentrations 10^−9 M to 10^−5 M
Excerpt: FIG. 2 compares the activity of selected adamantyl retinoids according to the invention and all-trans-retinoic acid against a human non-small lung carcinoma cell line.
FIG. 3 compares the activity of selected adamantyl retinoids according to the invention and all-trans-retinoic acid against human prostate adenocarcinoma, human metastatic prostate adenocarcinoma, and human prostate carcinoma cell lines.
FIG. 4 compares the activity of selected adamantyl retinoids according to the invention and all-trans-retinoic acid against a human liver cancer cell line.

[6] = test system: panel of human tumor cell lines; assay: Cell-based high throughput screening assays, percentage of surviving cells; settings: active = percentage survival of less than 80; FIG. 1
Description: The anti-cancer activity of various adamantyl retinoid compounds according to the invention was compared to all-trans-retinoic acid using cell-based high throughput screening assays. Specifically, the following compounds were tested in such assays: all-trans-retinoic acid, 6[3(1-adamantyl)-4-methoxyphenyl]-2-naphthoic acid, 2-[3-(1-adamantyl)-4-methoxyphenyl]-5-benzimidazole carboxylic acid, 6-[3-(1-adamantyl)-4-hydroxy-5-methoxyphenyl]-2-naphthoic acid, 6-[3-(1-adamantyl)-4-acetoxymethylphenyl]-2-naphthoic acid and 6-[3-(1-adamantyl)-4,5-methylenedioxyphenyl]-2-naphthoic acid.
These compounds were tested against a panel of human tumor cell lines having a variety of tissue origins, and having distinct tumor characteristics. The tumor cell cultures were exposed to the above retinoid compounds for a specific duration. After such exposure, the percentage of surviving cells was then measured using standard assays.

[7] = length of treatment 4 days (n = 2), patients (percent)
[8] = length of treatment 8 days (n = 23), patients (percent)
[9] = length of treatment 14 days (n = 24), patients (percent)

COc1ccc(-c2ccc3cc(C(=O)O)ccc3c2)cc1C12CC3CC(CC(C3)C1)C2 [Compound 1, 6-[3-(1-adamantyl)-4-methoxyphenyl]-2-naphthoic acid]
Response: Complete ([1]; 4 days, CIN II (n = 0)): 0(0.0) | Response: Overall ([1]; 4 days, CIN II (n = 0)): 0(0.0) | Response: Partial ([1]; 4 days, CIN II (n = 0)): 0(0.0) | Response: Progression ([1]; 4 days, CIN II (n = 0)): 0(0.0) | Response: Stable ([1]; 4 days, CIN II (n = 0)): 0(0.0) | Response: Complete ([1]; 4 days, CIN III/CIS (n = 2)): 0(0.0) | Response: Overall ([1]; 4 days, CIN III/CIS (n = 2)): 0(0.0) | Response: Partial ([1]; 4 days, CIN III/CIS (n = 2)): 0(0.0) | Response: Progression ([1]; 4 days, CIN III/CIS (n = 2)): 0(0.0) | Response: Stable ([1]; 4 days, CIN III/CIS (n = 2)): 2(100.0) | Response: Complete ([1]; 8 days, CIN II (n = 12)): 4(33.3) | Response: Overall ([1]; 8 days, CIN II (n = 12)): 8(66.7) | Response: Partial ([1]; 8 days, CIN II (n = 12)): 4(33.3) | Response: Progression ([1]; 8 days, CIN II (n = 12)): 0(0.0) | Response: Stable ([1]; 8 days, CIN II (n = 12)): 4(33.3) | Response: Complete ([1]; 8 days, CIN III/CIS (n = 11)): 3(27.3) | Response: Overall ([1]; 8 days, CIN III/CIS (n = 11)): 6(54.5) | Response: Partial ([1]; 8 days, CIN III/CIS (n = 11)): 3(27.3) | Response: Progression ([1]; 8 days, CIN III/CIS (n = 11)): 0(0.0) | Response: Stable ([1]; 8 days, CIN III/CIS (n = 11)): 5(45.4) | Response: Complete ([1]; 14 days, CIN II (n = 14)): 3(21.4) | Response: Overall ([1]; 14 days, CIN II (n = 14)): 6(42.9) | Response: Partial ([1]; 14 days, CIN II (n = 14)): 3(21.4) | Response: Progression ([1]; 14 days, CIN II (n = 14)): 0(0.0) | Response: Stable ([1]; 14 days, CIN II (n = 14)): 8(57.1) | Response: Complete ([1]; 14 days, CIN III/CIS (n = 10)): 2(20.0) | Response: Overall ([1]; 14 days, CIN III/CIS (n = 10)): 3(30.0) | Response: Partial ([1]; 14 days, CIN III/CIS (n = 10)): 1(10.0) | Response: Progression ([1]; 14 days, CIN III/CIS (n = 10)): 0(0.0) | Response: Stable ([1]; 14 days, CIN III/CIS (n = 10)): 7(70.0) | CIN Resolved ([1]; CIN II, N = 27): 30% | Improved to CIN I ([1]; CIN II, N = 27): 22% | Overall Response ([1]; CIN II, N = 27): 52% | Overall “cure” ([1]; CIN II, N = 27): 52% | CIN Resolved ([1]; CIN III, N = 21): 24% | Improved from CIN III to CIN II ([1]; CIN III, N = 21): 29% | Improved to CIN I ([1]; CIN III, N = 21): 19% | Overall Response ([1]; CIN III, N = 21): 72% | Overall “cure” ([1]; CIN III, N = 21): 43% | CIN Resolved ([1]; Total, N = 48): 27% | Improved from CIN III to CIN II ([1]; Total, N = 48): 13% | Improved to CIN I ([1]; Total, N = 48): 21% | Overall Response ([1]; Total, N = 48): 61% | Overall “cure” ([1]; Total, N = 48): 48% | response rates versus length of treatment ([1]; eight to fourteen days): did not increase | patients with complete response ([1]; human, in vivo): Twelve | patients with partial response (regressed to CIN I) ([1]; human, in vivo): eleven | patients with stable disease with no progression ([1]; human, in vivo): Twenty-six | Response: Complete [1, 7]: 0(0.0) | Response: Overall [1, 7]: 0(0.0) | Response: Partial [1, 7]: 0(0.0) | Response: Progression [1, 7]: 0(0.0) | Response: Stable [1, 7]: 2(100.0) | Response: Complete [1, 8]: 7(30.4) | Response: Overall [1, 8]: 14(60.8) | Response: Partial [1, 8]: 7(30.4) | Response: Progression [1, 8]: 0(0.0) | Response: Stable [1, 8]: 9(39.1) | Response: Complete [1, 9]: 5(20.8) | Response: Overall [1, 9]: 9(37.5) | Response: Partial [1, 9]: 4(16.7) | Response: Progression [1, 9]: 0(0.0) | Response: Stable [1, 9]: 15(62.5) | overall response rate (partial plus complete) ([1]; ninety days after treatment, 47 patients, eight day or fourteen day treatment): 48.7% | adverse effects ([1]; no patient withdrawn because of an adverse event): all averse effects reported were mild | highest overall response rate ([1]; patients treated for eight days): 60.8% | response ([1]; two patients, four day treatment): no response | inhibition of proliferation of cervical cancer cell lines ([2]; 1, 2 and 10 μM for 24, 48 and 96 hours): inhibit the proliferation of cervical cancer cell lines in a dose-dependent manner | EC50 ([2]; Homo sapiens, total incubation time 96 hours, estimated, read-out: EC50 (concentration that provides for 50% inhibition of cell proliferation)): ~5 µM | effect of incubation longer than 24 hours on proliferation ([2]; increase between 48 and 96 hours not statistically significant (p>0.05)): only a marginal effect on proliferation | concentration at which maximum inhibition of cell proliferation occurred ([2]; tested at 1, 2 and 10 μM): 10 µM | effect on proliferation of human cervical cell lines [3]: strong inhibitory effect | Types of Cancers and Precancers Active Against (cancer cells): brain, cervical (including, e.g.,; also recorded: cervical intraepithelial neoplasia; also recorded: I, II, III), head and neck, leu-; also recorded: kemia, lymphoma, prostate, skin | induction of apoptosis [4]: comparable to that of cells incubated with ceramide

COc1ccc(-c2nc3ccc(C(=O)O)cc3[nH]2)cc1C12CC3CC(CC(C3)C1)C2 [Compound 2, 2-[3-(1-adamantyl)-4-methoxyphenyl]-5-benzimidazole carboxylic acid]
anti-cancer activity [5]: significant anti-cancer activity | effect on proliferation of human cervical cell lines [3]: strong inhibitory effect | Types of Cancers and Precancers Active Against (cancer cells): brain, colon, leukemia, lung,; also recorded: cervical (including, e.g.,; also recorded: cervical intraepithelial neoplasia; also recorded: I, II, III), lymphoma, myeloma,; also recorded: ovarian, pancreatic, prostate,; also recorded: skin, liver

O=C(O)c1ccc2cc(-c3ccc(CO)c(C45CC6CC(CC(C6)C4)C5)c3)ccc2c1 [Compound 3, 6-[3-(1-adamantyl)-4-hydroxymethylphenyl]-2-naphthoic acid]
anti-cancer activity [5]: significant anti-cancer activity | Types of Cancers and Precancers Active Against (cancer cells): bladder, brain, breast, cervical,; also recorded: colon, head and neck, leukemia,; also recorded: kidney, lung, myeloma, ovarian,; also recorded: pancreatic, prostate, skin, liver

COc1cc(-c2ccc3cc(C(=O)O)ccc3c2)cc(C23CC4CC(CC(C4)C2)C3)c1O [Compound 4, 6-[3-(1-adamantyl)-4-hydroxy-5-methoxyphenyl]-2-naphthoic acid]
anti-cancer activity [5]: significant anti-cancer activity | Types of Cancers and Precancers Active Against (cancer cells): brain, breast, kidney, lung,; also recorded: leukemia, lymphoma, myeloma,; also recorded: ovarian, pancreatic, prostate,; also recorded: skin, liver

COc1ccc(-c2ccc3cc(C(=O)NCCN)ccc3c2)cc1C12CC3CC(CC(C3)C1)C2 [Compound 45, N-(2-aminoethyl)-{6-[3-(1-adamantyl)-4-methoxyphenyl]-2-naphthalenecarboxamide]]
Types of Cancers and Precancers Active Against (cancer cells): bladder, kidney, prostate,; also recorded: leukemia, breast, lung, neuro-; also recorded: blastoma, hepatoma, pancreas,; also recorded: cervix skin

O=C(c1ccc2cc(-c3cc4c(c(C56CC7CC(CC(C7)C5)C6)c3)OCO4)ccc2c1)N1CCNCC1 [Compound 46, N-{6-[3-(1-adamantyl)-4,5-methylenedioxy]-2-naphthalenecarboxoyl}piperazide]
Types of Cancers and Precancers Active Against (cancer cells): prostate, neuroblastoma,; also recorded: hepatoma

O=C(c1ccc2cc(-c3cc4c(c(C56CC7CC(CC(C7)C5)C6)c3)OCO4)ccc2c1)N1CCCNCC1 [Compound 47, N-{6-[3-(1-adamantyl)-4,5-methylenedioxy]-2-naphthalenecarboxoyl}homopiperazide]
Types of Cancers and Precancers Active Against (cancer cells): bladder, neuroblastoma, cervix, and skin

NCCNC(=O)c1ccc2cc(-c3cc4c(c(C56CC7CC(CC(C7)C5)C6)c3)OCO4)ccc2c1 [Compound 48, N-(2-aminoethyl)-{6-[3-(1-adamantyl)-4,5-methylenedioxyphenyl]-2-naphthalenecarboxamide}]
Types of Cancers and Precancers Active Against (cancer cells): breast, hepatoma, skin

CC12CC3CC(C1)CC(c1cc(-c4ccc5cc(C(=O)O)ccc5c4)ccc1O)(C3)C2 [Compound 49, 6-[3-(3-methyl-1-adamantyl)-4-hydroxyphenyl]-2-naphthalenecarboxylic acid]
Types of Cancers and Precancers Active Against (cancer cells): breast, neuroblastoma, leukemia

CC1=C(/C=C/C(C)=C/C=C/C(C)=C/C(=O)O)C(C)(C)CCC1 [all-trans-retinoic acid, reference compound]
activity against human cancers (percentage of surviving cells) [6]: did not give comparable results | anti-cancer activity [5]: did not exhibit similar activity | effect on proliferation of human cervical cell lines [3]: no significant effect on cell proliferation | induction of apoptosis [4]: did not induce apoptosis significantly

Ceramide
induction of apoptosis [4]: effectively induced apoptosis

Source: US6462064B1, “Apoptosis inducing adamantyl derivatives and their usage as anti-cancer agents, especially for cervical cancers and dysplasias” (Galderma Research & Development S.N.C., priority 1996, dated 2002)
